Values quoted from earlier work, collected in US9480691B1, “Topical liquid containing refined peanut oil for treating skin proliferation or inflammation disorders” (Hill Dermaceuticals, Inc., priority 2009, dated 2016).

Tested on: hypothalamus-pituitary-adrenal (HPA) axis
Conditions: at effective and prescribed doses

For `CCC(=O)O[C@]1(C(=O)CCl)[C@@H](C)C[C@H]2[C@@H]3CCC4=CC(=O)C=C[C@]4(C)[C@@]3(F)[C@@H](O)C[C@@]21C` [clobetasol propionate, (11β,16β)-21-chloro-9-fluoro-11-hydroxy-16-methyl-17-(1-oxo-propoxy)pregna-1,4-diene,3,10-dione], the “effect on HPA axis” value is listed as “suppress the hypothalamus-pituitary-adrenal (HPA) axis”.
